Experimental data from patent US8901156B2, “Compounds and methods” (Tempero Pharmaceuticals, Inc., priority 2010, dated 2014).

Molecular target: T1, Recombinant HDAC9 isoform 4 (Homo sapiens, UniProt Q9UKV0)
T1 construct: purchased BPS Bioscience
Assay: Histone Deacetylase 9 (HDAC9) inhibition assay, fluorogenic substrate
Format: biochemical
Conditions: mean of a minimum of 2 experiments; 11 point 3x dilution series from 100 uM; substrate 4.5 uM; read-out: mean pIC50, inhibition of HDAC9 (converted)

T1 sequence (Q9UKV0 1-1066 isoform Q9UKV0-5): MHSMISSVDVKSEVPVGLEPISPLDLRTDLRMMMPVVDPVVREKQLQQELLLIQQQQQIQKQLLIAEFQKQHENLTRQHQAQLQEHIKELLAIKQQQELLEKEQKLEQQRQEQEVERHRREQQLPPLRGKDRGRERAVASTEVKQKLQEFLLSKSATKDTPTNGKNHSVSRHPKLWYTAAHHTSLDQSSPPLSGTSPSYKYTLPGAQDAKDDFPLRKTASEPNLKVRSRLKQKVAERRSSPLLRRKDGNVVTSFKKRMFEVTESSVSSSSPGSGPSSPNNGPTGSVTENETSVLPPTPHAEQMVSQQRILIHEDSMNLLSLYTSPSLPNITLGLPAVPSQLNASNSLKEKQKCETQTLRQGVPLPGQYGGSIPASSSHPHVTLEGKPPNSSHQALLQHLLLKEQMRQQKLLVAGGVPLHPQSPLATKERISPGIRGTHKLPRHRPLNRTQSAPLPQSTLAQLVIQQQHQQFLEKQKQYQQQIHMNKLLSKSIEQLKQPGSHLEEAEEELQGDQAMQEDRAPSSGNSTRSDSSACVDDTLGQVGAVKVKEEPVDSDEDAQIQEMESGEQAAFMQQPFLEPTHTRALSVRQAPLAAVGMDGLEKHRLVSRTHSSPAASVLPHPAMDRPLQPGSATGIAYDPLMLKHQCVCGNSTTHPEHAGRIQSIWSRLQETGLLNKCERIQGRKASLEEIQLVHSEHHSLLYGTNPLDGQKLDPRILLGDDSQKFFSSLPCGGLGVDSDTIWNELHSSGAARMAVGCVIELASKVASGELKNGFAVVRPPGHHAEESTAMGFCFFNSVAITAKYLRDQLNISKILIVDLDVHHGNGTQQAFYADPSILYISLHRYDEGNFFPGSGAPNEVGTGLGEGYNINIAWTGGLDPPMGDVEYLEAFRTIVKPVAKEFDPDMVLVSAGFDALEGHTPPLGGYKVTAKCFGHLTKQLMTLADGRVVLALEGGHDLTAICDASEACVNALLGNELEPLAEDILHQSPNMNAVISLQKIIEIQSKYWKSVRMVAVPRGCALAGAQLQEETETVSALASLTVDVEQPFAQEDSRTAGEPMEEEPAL

SMILES	IC50 [µM]
O=C(NCC1(c2nc(-c3ccncc3)cs2)CCOCC1)c1cccc(-c2noc(C(F)(F)F)n2)c1 [Example 21, N-((4-(4-(Pyridin-4-yl)thiazol-2-yl)tetrahydro-2H-pyran-4-yl)methyl)-3-(5-(trifluoromethyl)-1,2,4-oxadiazol-3-yl)benzamide]	< 1
O=S(=O)(NCC1(c2nc(-c3ccccc3)cs2)CCOCC1)c1cccc(-c2noc(C(F)(F)F)n2)c1 [Example 32, N-((4-(4-Phenylthiazol-2-yl)tetrahydro-2H-pyran-4-yl)methyl)-3-(5-(trifluoromethyl)-1,2,4-oxadiazol-3-yl)benzenesulfonamide]	< 1
O=C(NCC1(c2cccc(-c3ccccc3)c2)CCOCC1)c1cncc(-c2noc(C(F)(F)F)n2)c1 [Example 78, N-((4-([1,1′-Biphenyl]-3-yl)tetrahydro-2H-pyran-4-yl)methyl)-5-(5-(trifluoromethyl)-1,2,4-oxadiazol-3-yl)nicotinamide]	< 1
O=C(NCCC(O)c1coc(-c2ccc(F)cc2)n1)c1cccc(-c2noc(C(F)(F)F)n2)c1 (centres unmarked) [Example 110, N-(3-(2-(4-Fluorophenyl)oxazol-4-yl)-3-hydroxypropyl)-3-(5-(trifluoromethyl)-1,2,4-oxadiazol-3-yl)benzamide]	< 1
O=C(NCCc1nc(-c2ccccc2)no1)c1cccc(-c2noc(C(F)(F)F)n2)c1 [Example 132, N-(2-(3-Phenyl-1,2,4-oxadiazol-5-yl)ethyl)-3-(5-(trifluoromethyl)-1,2,4-oxadiazol-3-yl)benzamide]	< 1
